Each molecule was assayed against memapsin 2 (Homo sapiens, UniProt P56817) (assay: Inhibition of memapsin 2 beta-secretase activity (fluorogenic substrate FS-2)). Details: memapsin 2, pH 4, 37° C., fluorogenic substrate FS-2; read-out: M2Ki.
Format: biochemical
Summary of the method: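 Memapsin 2 pre-incubated 20 min with compound at pH 4, 37° C, then FS-2 substrate (MCA-SEVNLDAEFK-DNP, APP Swedish cleavage site) added. Rate of fluorescence increase compared with uninhibited controls, fitted to a tight-binding inhibition model.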

memapsin 2, sequence (P56817 46-501): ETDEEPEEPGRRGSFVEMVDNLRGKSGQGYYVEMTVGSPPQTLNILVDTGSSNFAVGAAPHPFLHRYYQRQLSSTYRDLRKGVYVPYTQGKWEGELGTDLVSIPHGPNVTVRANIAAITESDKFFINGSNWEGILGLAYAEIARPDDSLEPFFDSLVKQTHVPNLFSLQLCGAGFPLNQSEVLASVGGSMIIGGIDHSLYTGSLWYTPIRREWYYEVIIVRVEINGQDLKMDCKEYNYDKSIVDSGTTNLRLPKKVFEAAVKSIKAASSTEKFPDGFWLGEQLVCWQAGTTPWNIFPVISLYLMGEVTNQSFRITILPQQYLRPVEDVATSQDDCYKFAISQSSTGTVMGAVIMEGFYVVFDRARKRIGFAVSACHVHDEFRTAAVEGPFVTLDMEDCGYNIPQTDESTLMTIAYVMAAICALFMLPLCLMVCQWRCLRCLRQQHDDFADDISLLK

Question: With `Cc1csc(CN(C)C(=O)c2cc(C(=O)N[C@@H](Cc3ccccc3)[C@H](O)CNCc3cncc(C(C)C)c3)cc(-n3ccnc3)c2)n1` [Compound 300, N1-((2S,3R)-3-hydroxy-4-((5-isopropylpyridin-3-yl)methylamino)-1-phenylbutan-2-yl)-5-(1H-imidazol-1-yl)-N3-methyl-N3-((4-methylthiazol-2-yl)methyl)isophthalamide] as the molecule, how does the Ki read?
Answer: < 0.3 µM

Question: With `COc1cccc([C@H](C)NC[C@@H](O)[C@H](Cc2ccccc2)NC(=O)c2cc(C(=O)N(C)Cc3nc(C)cs3)cc(C(F)F)c2)c1` [Compound 301, 5-(difluoromethyl)-N1-((2S,3R)-3-hydroxy-4-((S)-1-(3-methoxyphenyl)ethylamino)-1-phenylbutan-2-yl)-N3-methyl-N3-((4-methylthiazol-2-yl)methyl)isophthalamide] as the molecule, how does the Ki read?
Answer: < 0.3 µM

Question: Which Ki does the source give for `Cc1csc(CN(C)C(=O)c2cccc(C(=O)N[C@@H](Cc3ccccc3)[C@H](O)CNCc3cc(C(F)(F)F)ccn3)c2)n1` [Compound 302, N1-((2S,3R)-3-hydroxy-1-phenyl-4-((4-(trifluoromethyl)pyridin-2-yl)methylamino)butan-2-yl)-N3-methyl-N3-((4-methylthiazol-2-yl)methyl)isophthalamide] here?
Answer: < 0.3 µM

Question: For `Cc1csc(CN(C)C(=O)c2cc(C(=O)N[C@@H](Cc3ccccc3)[C@H](O)CNCc3cncc(C(C)C)c3)cc(-c3ccoc3)c2)n1` [Compound 303, 5-(furan-3-yl)-N1-((2S,3R)-3-hydroxy-4-((5-isopropylpyridin-3-yl)methylamino)-1-phenylbutan-2-yl)-N3-methyl-N3-((4-methylthiazol-2-yl)methyl)isophthalamide], which Ki is on record?
Answer: < 0.3 µM

Question: `Cc1csc(CN(C)C(=O)c2cccc(C(=O)N[C@@H](Cc3ccccc3)[C@H](O)CNCc3cncc(NC(C)C)c3)c2)n1` [Compound 304, N1-((2S,3R)-3-hydroxy-4-((5-(isopropylamino)pyridin-3-yl)methylamino)-1-phenylbutan-2-yl)-N3-methyl-N3-((4-methylthiazol-2-yl)methyl)isophthalamide] was tested. Which Ki did it give?
Answer: < 0.3 µM

Question: `Cc1csc(CN(C)C(=O)c2cc(C(=O)N[C@@H](Cc3ccccc3)[C@H](O)CNCc3cccc(C(F)(F)F)c3)cc(-c3ccco3)c2)n1` [Compound 305, 5-(furan-2-yl)-N1-((2S,3R)-3-hydroxy-1-phenyl-4-(3-(trifluoromethyl)benzylamino)butan-2-yl)-N3-methyl-N3-((4-methylthiazol-2-yl)methyl)isophthalamide] was tested. Which Ki did it give?
Answer: < 0.3 µM

Question: How did the Ki turn out when `COc1cccc(CNC[C@@H](O)[C@H](Cc2cc(F)cc(F)c2)NC(=O)c2cc(C(C)=O)cc(C(=O)N[C@H](C)c3ccccc3)c2)c1` [Compound 306, 5-acetyl-N1-((2S,3R)-1-(3,5-difluorophenyl)-3-hydroxy-4-(3-methoxybenzylamino)butan-2-yl)-N3-((R)-1-phenylethyl)isophthalamide] was run?
Answer: < 0.3 µM

Question: For `COc1cccc(CNC[C@@H](O)[C@H](Cc2ccccc2)NC(=O)c2cc(C(=O)N(C)Cc3nc(C)cs3)cc(C3CCC(O)C3)c2)c1` (stereo partly drawn) [Compound 307, N1-((2S,3R)-3-hydroxy-4-(3-methoxybenzylamino)-1-phenylbutan-2-yl)-5-(3-hydroxycyclopentyl)-N3-methyl-N3-((4-methylthiazol-2-yl)methyl)isophthalamide], which Ki is on record?
Answer: > 0.501 µM

Question: For `CC(=O)c1cc(C(=O)N[C@@H](Cc2ccccc2)[C@H](O)CNCc2cncc(C(C)C)c2)cc(C(=O)N[C@H](C)c2ccccc2)c1` [Compound 308, 5-acetyl-N1-((2S,3R)-3-hydroxy-4-((5-isopropylpyridin-3-yl)methylamino)-1-phenylbutan-2-yl)-N3-((R)-1-phenylethyl)isophthalamide], which Ki is on record?
Answer: < 0.3 µM

Question: With `COc1cccc(S(=O)(=O)NC[C@@H](O)[C@H](Cc2ccccc2)NC(=O)c2cccc(C(=O)N(C)Cc3nc(C)cs3)c2)c1` [Compound 309, N1-((2S,3R)-3-hydroxy-4-(3-methoxyphenylsulfonamido)-1-phenylbutan-2-yl)-N3-methyl-N3-((4-methylthiazol-2-yl)methyl)isophthalamide] as the molecule, how does the Ki read?
Answer: > 0.501 µM

Question: With `Cc1csc(CN(C)C(=O)c2cccc(C(=O)N[C@@H](Cc3ccccc3)[C@H](O)CNS(=O)(=O)c3cccc(C(F)(F)F)c3)c2)n1` [Compound 310, N1-((2S,3R)-3-hydroxy-1-phenyl-4-(3-(trifluoromethyl)phenylsulfonamido)butan-2-yl)-N3-methyl-N3-((4-methylthiazol-2-yl)methyl)isophthalamide] as the molecule, how does the Ki read?
Answer: > 0.501 µM

Question: How did the Ki turn out when `Cc1csc(CN(C)C(=O)c2cccc(C(=O)N[C@@H](Cc3ccccc3)[C@H](O)CNCc3cc(OC(=O)CN(C)C)cc(C(C)C)c3)c2)n1` [Compound 311, 3-(((2R,3S)-2-hydroxy-3-(3-(methyl((4-methylthiazol-2-yl)methyl)carbamoyl)benzamido)-4-phenylbutylamino)methyl)-5-isopropylphenyl 2-(dimethylamino)acetate] was run?
Answer: < 0.3 µM

Question: How did the Ki turn out when `Cc1csc(CN(C)C(=O)c2cccc(C(=O)N[C@@H](Cc3ccccc3)[C@H](O)CN(C)Cc3cncc(C(C)C)c3)c2)n1` [Compound 312, N1-((2S,3R)-3-hydroxy-4-(((5-isopropylpyridin-3-yl)methyl)(methyl)amino)-1-phenylbutan-2-yl)-N3-methyl-N3-((4-methylthiazol-2-yl)methyl)isophthalamide] was run?
Answer: > 0.501 µM

Question: How did the Ki turn out when `Cc1csc(CN(C)C(=O)c2cccc(C(=O)N[C@@H](Cc3ccccc3)[C@H](O)CNCc3cncc(C(C)CO)c3)c2)n1` (stereo partly drawn) [Compound 313, N1-((2S,3R)-3-hydroxy-4-((5-(1-hydroxypropan-2-yl)pyridin-3-yl)methylamino)-1-phenylbutan-2-yl)-N3-methyl-N3-((4-methylthiazol-2-yl)methyl)isophthalamide] was run?
Answer: < 0.3 µM

Question: Which Ki does the source give for `Cc1csc(CN(C)C(=O)c2cccc(C(=O)N[C@@H](Cc3ccccc3)[C@H](O)CNCc3cncc(C(C)CO)c3)c2)n1` (stereo partly drawn) [Compound 314, N1-((2S,3R)-3-hydroxy-4-((5-(1-hydroxypropan-2-yl)pyridin-3-yl)methylamino)-1-phenylbutan-2-yl)-N3-methyl-N3-((4-methylthiazol-2-yl)methyl)isophthalamide] here?
Answer: < 0.3 µM

Question: For `CC(C)c1cncc(CNC[C@@H](O)[C@H](Cc2ccccc2)NC(=O)c2cccc(C(=O)N(C)Cc3nc(Br)cs3)c2)c1` [Compound 315, N1-((4-bromothiazol-2-yl)methyl)-N3-((2S,3R)-3-hydroxy-4-((5-isopropylpyridin-3-yl)methylamino)-1-phenylbutan-2-yl)-N1-methylisophthalamide], which Ki is on record?
Answer: < 0.3 µM

Question: How did the Ki turn out when `CC(C)c1cncc(CNC[C@@H](O)[C@H](Cc2ccccc2)NC(=O)c2cccc(C(=O)N(C)Cc3nc(CO)cs3)c2)c1` [Compound 316, N1-((2S,3R)-3-hydroxy-4-((5-isopropylpyridin-3-yl)methylamino)-1-phenylbutan-2-yl)-N3-((4-(hydroxymethyl)thiazol-2-yl)methyl)-N3-methylisophthalamide] was run?
Answer: < 0.3 µM

Question: `Cc1csc(CN(C)C(=O)c2cc(C(=O)N[C@@H](Cc3ccccc3)[C@H](O)CNCc3cccc(C(F)(F)F)c3)cc(-c3cccc(N(C)C(=O)OC(C)(C)C)c3)c2)n1` [Compound 317, tert-butyl 3′-((2S,3R)-3-hydroxy-1-phenyl-4-(3-(trifluoromethyl)benzylamino)butan-2-ylcarbamoyl)-5′-(methyl((4-methylthiazol-2-yl)methyl)carbamoyl)biphenyl-3-yl(methyl)carbamate] was tested. Which Ki did it give?
Answer: < 0.3 µM

Source: patent publication US20100286145A1, “ISOPHTHALAMIDE DERIVATIVES INHIBITING BETA-SECRETASE ACTIVITY” (CoMentis, Inc., priority 2007, published 2010)
